The source of these data is patent US10208019B2, “GLP-1 receptor agonists and uses thereof” (Pfizer Inc., priority 2016, dated 2019).

Where two headings read alike, the source gives them in different places.

This experiment has as its target human GLP-1R (Homo sapiens, UniProt P43220, G168S). In words: CHO GLP-1R Clone H6—Assay 1: HTRF cAMP cell-based functional agonist assay (high GLP-1R density). The note with it: for Assay 1 Emax (%): CHO GLP-1R Clone H6; for Assay 1 Emax (%) / Emax: relative to saturating concentration of full agonist GLP-1 (1 μM), arithmetic mean; for EC50: CHO GLP-1R Clone H6, cAMP HTRF, geometric mean; for Emax: read-out: Assay 1 Emax (%), CHO GLP-1R Clone H6.

human GLP-1R, sequence (P43220 24-463 G168S limits assumed): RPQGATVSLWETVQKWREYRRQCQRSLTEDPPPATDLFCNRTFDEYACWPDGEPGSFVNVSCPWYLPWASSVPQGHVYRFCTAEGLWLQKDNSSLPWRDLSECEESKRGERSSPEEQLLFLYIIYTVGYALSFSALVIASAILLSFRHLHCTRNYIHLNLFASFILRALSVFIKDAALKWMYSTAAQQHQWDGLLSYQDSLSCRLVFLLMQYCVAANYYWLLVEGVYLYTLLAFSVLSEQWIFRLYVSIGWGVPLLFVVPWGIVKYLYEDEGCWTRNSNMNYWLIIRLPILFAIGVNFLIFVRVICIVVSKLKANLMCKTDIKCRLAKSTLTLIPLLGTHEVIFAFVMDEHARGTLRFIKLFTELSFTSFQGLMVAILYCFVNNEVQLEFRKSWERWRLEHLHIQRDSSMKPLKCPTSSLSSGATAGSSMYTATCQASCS

In the case of “2-[(4-{6-[(4-chloro-2-fluorobenzyl)oxy]pyridin-2-yl}piperidin-1-yl)methyl]-1-(tetrahydro-2H-pyran-2-ylmethyl)-1H-benzimidazole-6-carboxylic acid [Example 11A-48]”, the “Assay 1 Emax (%)” value is reported as 71%. Consider `COCCn1c(CN2CC[C@@H](c3cccc(OCc4ccc(Cl)cc4F)n3)[C@@H](O)C2)nc2ccc(C(=O)O)cc21` (racemic) [Example 1A-24, rac-2-{[(3R,4S)-4-{6-[(4-chloro-2-fluorobenzyl)oxy]pyridin-2-yl}-3-hydroxypiperidin-1-yl]methyl}-1-(2-methoxyethyl)-1H-benzimidazole-6-carboxylic acid], for which the Emax is 84%. This molecule also returned an EC50 (Assay 1 EC50 (nM)) of more than 11000 nM. Regarding `COCCn1c(CN2CCC(c3cccc(OCc4ccc(Cl)cc4F)n3)CC2C)nc2ccc(C(=O)O)cc21` (single isomer, unassigned) [Example 13A-01, trans 2-{[4-{6-[(4-Chloro-2-fluorobenzyl)oxy]pyridin-2-yl}-2-methylpiperidin-1-yl]methyl}-1-(2-methoxyethyl)-1H-benzimidazole-6-carboxylic acid], the “Assay 1 Emax (%)” value was 58%. The molecule also displayed an EC50 (Assay 1 EC50 (nM)) of 1200 nM.

`COCCn1c(CN2CCC(c3cccc(OCc4ccc(Cl)cc4F)n3)CC2C)nc2ccc(C(=O)O)cc21` (single isomer, unassigned) [Example 13A-02, trans 2-{[4-{6-[(4-Chloro-2-fluorobenzyl)oxy]pyridin-2-yl}-2-methylpiperidin-1-yl]methyl}-1-(2-methoxyethyl)-1H-benzimidazole-6-carboxylic acid]: the “Assay 1 Emax (%)” value is listed as 81%. Besides, a half-maximal response (Assay 1 EC50 (nM)) (EC50) required 420 nM. With `COCCn1c(CN2CCN(c3cccc(OCc4ccc(Cl)cc4F)n3)CC2C(F)(F)F)nc2ccc(C(=O)O)cc21` (single isomer, unassigned; enantiomer 1) [Example 12A-01, 2-((4-(6-((4-Chloro-2-fluorobenzyl)oxy)pyridin-2-yl)-2-(trifluoromethyl)piperazin-1-yl)methyl)-1-(2-methoxyethyl)-1H-benzo[d]imidazole-6-carboxylic acid, enantiomer 1], the EC50 (Assay 1 EC50 (nM)) was more than 20000 nM. Take `N#Cc1ccc(COc2nc(C3CCN(Cc4nc5ccc(C(=O)O)cc5n4CC4CCOC4)CC3)ccc2F)cc1` (single isomer, unassigned; enantiomer 1) [Example 14A-05, 2-[(4-{6-](4-cyanobenzyl)oxy]-5-fluoropyridin-2-yl}piperidin-1-yl)methyl]-1-(tetrahydrofuran-3-ylmethyl)-1H-benzimidazole-6-carboxylic acid,enantiomer 1]: the “Assay 1 Emax (%)” value amounted to 82%. On the same count and under the same terms, next, `N#Cc1ccc(COc2cccc(C3CCN(Cc4nc5ccc(C(=O)O)cc5n4CC4CCOC4)CC3)n2)c(F)c1` (single isomer, unassigned; enantiomer 1) [Example 14A-09, 2-[(4-{6-[(4-cyano-2-fluorobenzyl)oxy]pyridin-2-yl}piperidin-1-yl)methyl]-1-(tetrahydrofuran-3-ylmethyl)-1H-benzimidazole-6-carboxylic acid,enantiomer 1]: 73%; `N#Cc1ccc(COc2cccc(C3CCN(Cc4nc5ccc(C(=O)O)cc5n4CC4CCOC4)CC3)n2)c(F)c1` (single isomer, unassigned; enantiomer 2) [Example 14A-10, 2-[(4-{6-[(4-cyano-2-fluorobenzyl)oxy]pyridin-2-yl}piperidin-1-yl)methyl]-1-(tetrahydrofuran-3-ylmethyl)-1H-benzimidazole-6-carboxylic acid,enantiomer 2]: 64%. For the molecule `COCCn1c(CN2CCC(c3cccc(OCc4ccc(Cl)cc4F)n3)CC2)nc2ccc(C(=O)O)cc21` [Example 1A-02, 2-[(4-{6-[(4-chloro-2-fluorobenzyl)oxy]pyridin-2-yl}piperidin-1-yl)methyl]-1-(2-methoxyethyl)-1H-benzimidazole-6-carboxylic acid], the Emax is 85%. Moreover, under “read-out: Assay 1 EC50”, the 50% effective concentration (EC50) was 16 nM.
